What was measured:
Type in all cases: in vivo, Balb/C mice
[1] = tested on: hematopoietic recovery after 5-fluorouracil; assay: Hematopoietic recovery after 5-fluorouracil (Example 42)
Protocol: 5-fluorouracil (5-FU) (150 mg/kg, i.p.) was administered to forty Balb/C female mice weighing approximately 20 grams each. Twenty-four hours later and each day thereafter for a total of 8 days, mice were given a 0.4 ml i.p. injection of either physiological saline (controls) or 5'-O-palmitoylguanosine (2.5 μmoles/mouse/day in 0.2% Tween 80). On days 7 and 14 following 5-FU administration half of the animals from each group were bled and then were sacrificed by cervical dislocation. Spleens were removed and weighed, and complete blood cells counts performed.

[2] = tested on: hematopoiesis in normal mice; assay: Hematopoiesis in normal mice (Example 44)
Protocol: Normal, otherwise untreated, female Balb/C mice weighing approximately 20 grams each received a total of 4 or 9 0.4 ml intraperitoneal injections (one per day) of either Tween-80 (0.2%) (controls), palmitoylguanosine (2.5 μmoles/mouse/day), or palmitoyldeoxyinosine (2.5 μmoles/mouse/day). Twenty-four hours after the 4th or 9th treatment, groups of 5 or 6 animals from each of the 3 groups were bled and then sacrificed by cervical dislocation. Spleens were removed and weighed, and complete blood cell counts performed.

[3] = tested on: hematopoietic recovery after cyclophosphamide; assay: Timing of administration, hematopoietic recovery after cyclophosphamide (Example 41); settings: day 7
Protocol: Cyclophosphamide (CP) (275 mg/kg, i.p.) was administered to 81 Balb/C female mice weighing approximately 20 grams each. Twenty-four hours later treatment was begun. Mice were given a 0.4 ml i.p. injection of either physiological saline (controls), Tween 80 (0.2%), or palmitoylguanosine (5 μmoles/mouse/day in 0.2% Tween 80). The timing of the treatments was varied within the groups. The control group was given saline on days 1-6. The mice receiving Tween 80 were treated either on days 1-4, 4-6 or 1-6. Palmitoylguanosine-treated mice were treated either on days 1-2, 1-4, 3-5, 4-6 or 1-6. If a group of mice received no Tween 80 or palmitoylguanosine on a given day, saline was administered by i.p. injection. Thus, there were 9 groups of 9 animals in all. On day 7 following CP administration all of the animals were bled and then sacrificed by cervical dislocation. Spleens were removed and weighed, and complete blood cell counts performed.

[4] = tested on: hematopoietic recovery after cyclophosphamide; assay: Hematopoietic recovery after cyclophosphamide (Example 47)
Protocol: Cyclophosphamide (CP) (275 mg/kg, i.p.) was administered to 48 Balb/C female mice weighing approximately 20 grams each. Twenty-four hours later and each day thereafter for a total of 6 days, mice were given a 0.4 ml i.p. injection of either physiological saline (controls), benzoylguanosine (2.5 μmoles/mouse/day in 0.2% Tween 80), or palmitoylguanosine (2.5 μmoles/mouse/day in 0.2% Tween 80). On days 7 and 10 following CP administration 8 animals from each of the 3 groups were bled and then were sacrificed by cervical dislocation. Spleens were removed and weighed, and complete blood cell counts performed.

[5] = tested on: hematopoiesis in normal mice; assay: Hematopoiesis in normal mice (Example 56); settings: day 5; 2.6 μmoles/mouse, 4 days
Method in brief: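 Normal female Balb/C mice (~20 g; 3 per group) received daily i.p. saline or acylated guanosine derivatives (2.6 μmoles/mouse) for 4 days. On day 5, animals were bled and sacrificed. Spleen weights, complete blood counts and femoral marrow differential counts were recorded.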

[6] = tested on: hematopoietic recovery after cyclophosphamide; assay: Hematopoietic recovery after cyclophosphamide (Example 50); settings: day 5; 2 μmoles/mouse
Protocol: Cyclophosphamide (CP) (275 mg/kg, i.p.) was administered to 96 Balb/C female mice weighing approximately 20 grams each. Twenty-four hours later and each day thereafter mice were given a 0.4 ml i.p. injection of either Tween-80 (0.2%) (controls), palmitoyldeoxyguanosine (2 μmoles/mouse), palmitoyldeoxyinosine (2 μmoles/mouse), palmitoylacyclovir (2 μmoles/mouse), palmitoylarabinosylguanine (2 μmoles/mouse), palmitoylarabinosylhypoxanthine (2 μmoles/mouse), monopalmitoylguanosine 2',3'-acyclic dialcohol (2 μmoles/mouse), and palmitoyl-8-thioguanosine (2 μmoles/mouse). On days 5 and 7 following CP administration 6 animals in each of the 8 groups were bled and then sacrificed by cervical dislocation. Spleens were removed and weighed, and complete blood cell counts performed.

[7] = tested on: hematopoietic recovery after cyclophosphamide; assay: Hematopoietic recovery after cyclophosphamide, acyl chain length (Example 38); settings: day 7
Protocol: Cyclophosphamide (CP) (275 mg/kg, i.p.) was administered to 70 Balb/C female mice weighing approximately 20 grams each. Twenty-four hours later and each day thereafter for a total of 6 days, mice were given a 0.4 ml i.p injection of either physiological saline (controls), Tween 80 (0.2%), guanosine (5 μmoles/mouse/day in 0.2% Tween 80), or 2.5 μmoles per mouse per day of one of the following acylated derivatives of guanosine in 0.2% Tween 80: triacetylguanosine, octanoylguanosine, lauroylguanosine, or palmitoylguanosine. On day 7 following CP administration all 10 animals from each of the 7 groups were bled, and then sacrificed by cervical dislocation. Spleens were removed and weighed, and complete blood counts performed.

[8] = tested on: hematopoietic recovery after 5-fluorouracil; assay: Hematopoietic recovery after 5-fluorouracil (Example 43)
Protocol: 5-fluorouracil (5-FU) (150 mg/kg,i.p.) was administered to fifty-four Balb/C female mice weighing approximately 20 grams each. Twenty-four hours later and each day thereafter for a total of 7 days, mice were given a 0.4 ml i.p. injection of either physiological saline (controls) or palmitoylguanosine (2.5 μmoles/mouse/day in 0.2% Tween 80). On days 8, 10 and 12 following administration of 5-FU nine animals from each group were bled and then sacrificed by cervical dislocation. Spleens were removed and weighed, and complete blood cell counts performed.

SMILES: CCCCCCCCCCCCCCCC(=O)OC[C@H]1O[C@@H](n2cnc3c(=O)[nH]c(N)nc32)[C@H](O)[C@@H]1O
- spleen weight ([1]; day 7, 2.5 μmoles/mouse/day i.p.): slight, but statistically significant, increase in spleen weight
- other parameters ([1]; day 7, vs control): No other differences
- Lymphocytes ([1]; day 14): significantly higher numbers
- Neutrophils ([1]; day 14): significantly higher numbers
- Platelets ([1]; day 14): significantly higher numbers
- spleen weight ([1]; day 14): significantly heavier spleens
- total leukocytes ([1]; day 14): significantly higher numbers
- spleen weight ([2]; day 5, 2.5 μmoles/mouse/day i.p.): significantly greater
- total leukocyte counts ([2]; day 10, vs Tween 80): significantly elevated
- spleen weight ([3]; 5 μmoles/mouse/day, any time period, vs saline): significantly greater spleen weight
- total white blood cell (WBC) counts ([3]; all periods except days 4-6, vs Tween 80): significantly greater
- spleen weight ([3]; any period, vs Tween 80): larger spleens
- total white blood cell (WBC) counts ([3]; each treatment period, vs saline): significantly greater
- lymphocyte counts ([3]; treatment days 1-2 or 1-6): elevated lymphocyte counts
- spleen weight ([3]; treatment days 1-4 or 1-6, among periods): greatest effect on spleen weight
- total neutrophil counts ([3]; treatment days 1-6): greatest increase in total neutrophil counts
- total white blood cell (WBC) counts ([3]; treatment days 1-6, vs other periods): greatest effect
- total neutrophils ([3]; treatment days 1 and 2, vs saline or Tween 80): significant increase in total neutrophils
- Neutrophils ([4]; day 7, 2.5 μmoles/mouse/day): significantly elevated
- spleen weight ([4]; day 7, 2.5 μmoles/mouse/day): significantly elevated
- total white blood cells ([4]; day 7, 2.5 μmoles/mouse/day): significantly elevated
- platelet number ([4]; day 10): significantly greater
- spleen weight [5]: significantly elevated
- spleen weight [6]: significantly elevated
- white blood cell (WBC) counts [7]: greatest effect on total WBC counts
- spleen weight ([7]; guanosine 5, acyl derivatives 2.5 μmoles/mouse/day i.p.): significantly larger spleens
- Platelets ([8]; day 8, 2.5 μmoles/mouse/day i.p., vs control): significantly greater
- Platelets ([8]; day 10, vs control): greater numbers of platelets
- spleen size ([8]; day 10, vs saline): significantly larger
- number of neutrophils, fold greater than control ([8]; day 12): 3 fold
- spleen weight ([8]; day 12, vs control): more than double

From patent publication US6054441A, “Oxypurine nucleosides and their congeners, and acyl derivatives thereof, for improvement of hematopoiesis” (priority 1995, dated 2000)
